Where “and” joins values, the source holds several entries; their conditions need not be identical. Equal values may be shown once.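 Growth conditions: 96-well plates. Treatment: test compound, 48 hours, 5 concentrations. Analysis: linear interpolation between bracketing concentrations; unreached endpoints set to highest concentration. GI50 marks 50% less growth. The concentration for full growth arrest is given as TGI.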 *1 amine or outer side, *2 acyl side, *3 side chain or, on linkers, in order; H or OH if unused. Where a SMILES comes first, the peptide text is derived from it. Bridges are numbered along the chain shown (N, C = ends). Roman numbers before positions name the chains, in order. [ ]: non-standard residue; d: D form. Actinocin(9to1) = Cc1c2oc3c(C)ccc(C(=O)[*:1])c3nc-2c(C(=O)[*:2])c(N)c1=O; NMeV = CN[CH](C(=O)O)C(C)C; Sar = CNCC(=O)O
What was measured:
Assay in all cases: inhibition of tumour cell growth, NCI panel, 48 h
MDA-MB-435 = tested on: MDA-MB-435
SK-OV-3 ovarian = tested on: SK-OV-3 ovarian
LOX IMVI melanoma = tested on: LOX IMVI melanoma
T-47D breast = tested on: T-47D breast
HOP-92 NSCLC = tested on: HOP-92 NSCLC
SK-MEL-5 melanoma = tested on: SK-MEL-5 melanoma
NCI-H522 lung = tested on: NCI-H522 lung
SN12C renal = tested on: SN12C renal
NCI-H23 lung = tested on: NCI-H23 lung
SF-539 CNS = tested on: SF-539 CNS

Compound	TGI (MDA-MB-435) [µM]	TGI (SK-OV-3 ovarian) [µM]	TGI (LOX IMVI melanoma) [µM]	TGI (T-47D breast) [µM]	TGI (HOP-92 NSCLC) [µM]	TGI (SK-MEL-5 melanoma)	TGI (NCI-H522 lung) [µM]	TGI (SN12C renal) [µM]	TGI (NCI-H23 lung)	TGI (SF-539 CNS) [µM]	GI50 (SF-539 CNS) [µM]
CC(=O)O[C@H]1CC[C@@]2(C)C(=CC[C@@H]3[C@@H]2CC[C@]2(C)C(=N/O)/C(=C\c4ccccc4)C[C@@H]32)C1	> 33.1	> 100	26	> 93.7	88.5	11.4 µM	21.2	38.1	> 100 µM	83.3	
ClC(Cl)(Cl)C1CCOC1n1nnc2ccccc21 (configuration not stated)	> 100	> 100		> 100		> 100 µM	> 100	> 100	> 100 µM	> 100	
COc1ccc(C2C3=C(N=C4SC(C(C)=O)=C(C)N42)c2ccccc2CC3)cc1 (configuration not stated)	> 100	> 100	> 100	> 100	> 100	> 100 µM		> 100	> 100 µM	> 100	
CC(C)(C)OC(=O)N/C(C=O)=C\C1CCCCC1	49.5	> 100	29.9	84.5		31.3 µM	> 100	42.1	62 µM	87.6	
Cc1ccc(S(=O)(=O)NC(CCC(=O)NNc2ccccc2)C(=O)NNc2ccccc2)cc1 (configuration not stated)	> 100	> 100	> 100	> 100	> 100	> 100 µM	> 100		> 100 µM	> 100	
CC(C)(C)OC(=O)NC12C3C4C1C1C2C3C41NC(=O)OC(C)(C)C (configuration not stated)	> 100		> 100	> 100	> 100	> 100 µM	> 100	> 100	> 100 µM	93.9	
NC(Cc1ccc(OCc2ccccc2)cc1)C(=O)NC(Cc1ccccc1)C(=O)Oc1c(Cl)c(Cl)c(Cl)c(Cl)c1Cl (configuration not stated)	33.9	28.9	27.1	37.1	25.8	32.4 µM	42.3	32	30.6 µM	30.6	
CCc1cccc2c3c([nH]c12)-c1ccccc1NC(=O)C3	> 100	> 100	> 100	> 100	> 100	> 100 µM		> 100	> 100 µM		
O=c1[nH]c(=O)n(C2CC(O)C(CO)O2)cc1Oc1ccccc1 (configuration not stated)	> 100	> 100	> 100	> 100		> 100 µM	> 100	> 100	> 100 µM		
COc1cc(/C=C2\CC/C(=C\c3cc(OC)c(O)c(OC)c3)C2=O)cc(OC)c1O	4.19	> 100	6.26	8.02		5.57 µM	2.75	> 29.3	5.72 µM	> 100	
O=C1NC(=O)c2ccccc2/C1=C/c1ccc2c(c1)OCO2	50.1	> 100	46.4	> 100	> 100	29.8 µM	> 100	47.1	46.8 µM	46.7	
CSC(=S)Nc1cc(C)cc(C)n1	> 31.6	> 31.6	> 31.6	> 31.6	> 31.6	> 100 µM	> 31.6	> 31.6	> 31.6 µM	> 100	
Cc1cn(C2CCC(CO)(CF)O2)c(=O)[nH]c1=O (configuration not stated)	> 100	> 100	> 100	> 100	> 100	> 100 µM	> 100	> 100	> 100 µM	> 100	
COc1cc2cc(C(=O)N3CC(COS(C)(=O)=O)c4ccc(NC(=O)OCc5ccccc5)cc43)[nH]c2c(OC)c1OC (configuration not stated)	> 100	> 100	> 100	> 100	> 100	> 100 µM	> 100	> 100	> 100 µM	> 100	
Nc1ccc(-c2nc3ccccc3s2)cc1Cl	> 100	> 100	> 100	> 100	> 100	> 100 µM	> 100	> 100	> 100 µM	> 100	
C(/C=N/NC1=NCCCCN1)=N\NC1=NCCCCN1	> 100	> 100	> 100	> 100	> 100	> 100 µM	> 100	> 100	> 100 µM	> 100	
Cc1cc(C)c2c(c1)CC1(Cc3cc(C)c(C)cc3C1=O)C2=O (configuration not stated)	> 100		> 100	> 100	> 100	> 100 µM	> 100	> 100		> 100	
CC1=NN(c2cccc(Cl)c2)C2(C1=Cc1ccc(O)cc1)C(Cl)C(=O)N2c1nc2ccccc2s1 (configuration not stated)	83.4	57.4	47.5	97.8	37.5	39.8 µM	49		38.4 µM	> 100	
N#Cc1nc2cc(Cl)ccc2nc1N1CCN(c2ccc([N+](=O)[O-])cc2)CC1	> 100	> 100		> 100		> 100 µM		> 100	> 100 µM	> 100	
O[C@@H]1C=C[C@]23CCN(Cc4cc5c(cc42)OCO5)[C@@H]3C1	> 100	> 100	> 100	> 100	> 100	> 100 µM	> 100	> 100	> 100 µM	> 100	
CC1CC[C@@]2(OC1)O[C@H]1[C@H](O)[C@H]3[C@@H]4CC[C@H]5C[C@@H](OC6OC(CO)C(OC7OC(CO)C(O)C(OC8OCC(O)C(O)C8O)C7OC7OC(CO)C(O)C(O)C7OC7OC(CO)C(O)C(O)C7O)C(O)C6O)[C@H](O)C[C@]5(C)[C@H]4CC[C@]3(C)[C@H]1[C@@H]2C (some centres not stated)	> 10		> 10	> 10	> 10	> 10 µM	6.87	> 10	> 10 µM	> 10	

Compound	TGI (MDA-MB-435) [µM]	TGI (SK-OV-3 ovarian) [µM]	TGI (LOX IMVI melanoma) [µM]	TGI (T-47D breast) [µM]	TGI (HOP-92 NSCLC) [µM]	TGI (SK-MEL-5 melanoma)	TGI (NCI-H522 lung) [µM]	TGI (SN12C renal) [µM]	TGI (NCI-H23 lung)	TGI (SF-539 CNS) [µM]	GI50 (SF-539 CNS) [µM]
COc1cc2ccc(C(=O)NCCCNC(=O)c3ccc4cc(OC)c(OC)cc4c3)cc2cc1OC	> 100	> 100	> 100	> 100	> 100	> 100 µM	> 100	> 100	> 100 µM	> 100	
CC1CC/C(=C\c2ccc(F)cc2)C2=C1C(c1ccc(F)cc1)N1C(=O)CSC1=N2 (configuration not stated)	> 100	> 100	> 100	> 100		> 100 µM		> 100	> 100 µM	> 100	
C#CC(O)(c1nc2ccccc2s1)c1nc2ccccc2s1	87.6		35.7	88.9	38.2	30.7 µM	39.7	42.6	56.1 µM	36.7	
CC(C)(C)OC(=O)[C@@H]1CCC(=O)N1C1(c2ccccc2)c2ccccc2-c2ccccc21	> 100	> 100	37.2	> 100	> 100	51.9 µM	94	> 100	> 100 µM	35.7	
Fc1cccc(F)c1C1SCc2nc3cc(Cl)c(Cl)cc3n21 (configuration not stated)	> 100	> 100	> 100	> 100	> 100	> 100 µM	> 100	> 100	> 100 µM	> 100	
FC(F)(F)c1cc(N(C2c3ccccc3C=Cc3ccccc32)P(Cl)Cl)cc(C(F)(F)F)c1	64.9	69.8	36.1	56.4	30.4	32.7 µM	28.6	32.7	97.7 µM	66.6	
Cc1cc(S(=O)(=O)Nc2nc3ncccc3[nH]2)c(S)cc1Cl	> 100	> 100	> 100	> 100	> 100	> 100 µM	> 100	> 100	> 100 µM	> 100	
COC(=O)[C@H](Cc1c[nH]c2ccccc12)NP(=O)(OCCC#N)OCC1OC(n2cc(C)c(=O)[nH]c2=O)CC1N=[N+]=[N-] (some centres not stated)	> 100	> 100	> 100	> 100	> 100	> 100 µM	> 100	> 100	> 100 µM		
CN(Cc1cnc2nc(N)nc(N)c2n1)c1ccc(C(=O)NC23CC4CC(CC(C4)C2)C3)cc1	31.6	31.9	53	39		17.7 µM		56.8	22.3 µM		
COC(C/C(=C/CO[Si](C(C)C)(C(C)C)C(C)C)C(=O)N(COCC[Si](C)(C)C)c1ccccc1I)OC	29.1	> 100	37.8	> 100	> 100	> 100 µM		> 100	79.5 µM		
Cn1cnc(N)c(N=O)c1=O	> 10	> 10	> 10	> 10		> 10 µM	> 10	> 10	> 10 µM	> 10	
CCOC(=O)c1ccc(Nc2nc3ccccc3nc2-c2cccs2)cc1	> 100		74.1	56.2		> 100 µM	80.7	99.3	> 100 µM	> 100	
COc1cccc(N=N/C(=N/NC(=O)c2ccc(C)cc2)c2ccc(N(CCC#N)CCC#N)cc2OC)c1	> 100	> 100	> 100	> 100	> 100	> 100 µM	> 100	> 100	> 100 µM		
C1=NCCNCCNCCN=Cc2ccc(cc2)OCc2cccc(n2)COc2ccc1cc2	> 100	> 100		> 100	> 100	> 100 µM		> 100	> 100 µM	> 100	
N#C/C(=C/C=C/c1ccco1)C(N)=O	> 10	> 10	> 10	> 10		> 10 µM	> 10	> 10		> 10	
Cc1c2oc3c(C)ccc(C(=O)NC4C(=O)NC(Cc5ccccc5)C(=O)N5CCCC5C(=O)N(C)CC(=O)N(C)C(C(C)C)C(=O)OC4C)c3nc-2c(C(=O)NC2C(=O)NC(Cc3ccccc3)C(=O)N3CCCC3C(=O)N(C)CC(=O)N(C)C(C(C)C)C(=O)OC2C)c(N)c1=O (configuration not stated) (I: TFP[Sar][NMeV] / II: TFP[Sar][NMeV]; ester I:1-I:C, II:1-II:C; linker I:N-II:N via Actinocin(9to1); configuration not given here)	0.0222	0.524		0.0647		0.0192 µM and 0.0125 µM	0.0217		0.0202 µM and 0.0398 µM		< 0.001
Cc1nc2cc(F)c(F)cc2[nH]c1=O	> 100	> 100	> 100	> 100	> 100	> 100 µM		> 100	> 100 µM	> 100	
O=c1[nH]nc(-c2ccccc2)n1/N=C/c1ccc([N+](=O)[O-])o1	10.9	65.6	> 100	> 96.4	> 24.1	28.9 µM	6.83	13.5		15.7	
COC(=O)C1CC2(C)C=CC1N(C(=O)OCc1ccccc1)C2 (configuration not stated)	> 100	> 100	> 100	> 100		> 100 µM	> 100	> 100	> 100 µM	> 100	
COC(=O)C1=C(OC(=O)/C(=C/c2ccccc2)c2ccc(OC)cc2)C(C(=O)OC)[C@@]2(O)[C@@H](C(=O)OC)[C@H](C)C[C@@H]1[C@@H]2C(=O)OC (some centres not stated)	> 100	> 100	> 100	> 100		> 100 µM	> 100	> 100	> 100 µM	> 100	
N#CC1(C#N)C(C#N)(C#N)C1(C#N)C(N)=O	> 100	> 100	> 100	> 100	> 100	> 100 µM	> 100	> 100	> 100 µM		
